Activity calls are given as the source filed them.
Key:
Cannabinoid receptor 1 [1] = target: T1, Cannabinoid receptor 1 (Homo sapiens, UniProt P21554); test: SAR analysis of agonists of the Cannabinoid Receptor 1 using an Image-Based Assay - Set 4. [Related pubchem assays (depositor defined):AID2013, AID2026]; format: functional
[2] = target: T2, G-protein coupled receptor 35 (Homo sapiens, UniProt Q9HC97); test: SAR analysis of Antagonists of the GPR35 Receptor using an Image-Based Assay - Set 6. [Related pubchem assays (depositor defined):AID2013, AID2026]; format: functional
Cannabinoid receptor 1 [3] = target: T1, Cannabinoid receptor 1; test: SAR analysis of antagonists of the Cannabinoid Receptor 1 using an Image-Based Assay - Set 4. [Related pubchem assays (depositor defined):AID2013, AID2026]; format: functional
[4] = target: G-protein coupled receptor 55 (Homo sapiens, UniProt Q9Y2T6); test: SAR Analysis of Selective Antagonists of GPR55 using an Image-Based Assay - Set 4. [Related pubchem assays (depositor defined):AID2013, AID2026]; format: functional;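 note: antagonism of response to 5 µM lysophosphatidylinositol agonist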
[5] = target: T2, G-protein coupled receptor 35; test: SAR analysis of Agonists of the GPR35 Receptor using an Image-Based Assay - Set 4. [Related pubchem assays (depositor defined):AID2013, AID2026]; format: functional
Cannabinoid receptor 2 [6] = target: T3, Cannabinoid receptor 2 (Homo sapiens, UniProt P34972); test: SAR analysis of agonists of the Cannabinoid Receptor 2 using an Image-Based Assay - Set 3. [Related pubchem assays (depositor defined):AID2013, AID2026]; format: functional
Cannabinoid receptor 2 [7] = target: T3, Cannabinoid receptor 2; test: SAR analysis of antagonists of the Cannabinoid Receptor 2 using an Image-Based Assay - Set 3. [Related pubchem assays (depositor defined):AID2013, AID2026]; format: functional
Mu-type opioid receptor = Mu-type opioid receptor (Homo sapiens, UniProt P35372); test: SAR Analysis of Agonists of the MOR Receptor using an Image-Based Assay - Set 3. [Related pubchem assays (depositor defined):AID1777, AID1785, AID1786, AID1966, AID2133, AID2136, AID2284, AID2285, AID2352]; format: functional
[8] = target: Delta-type opioid receptor (Homo sapiens, UniProt P41143); test: SAR Analysis of Agonists of the DOR Receptor using an Image-Based Assay - Set 3. [Related pubchem assays (depositor defined):AID1777, AID1786]; format: functional
[9] = target: T4, Type-1 angiotensin II receptor (Homo sapiens, UniProt P30556); test: agonist activity at AGTR1 – cell-based, uHTS hits, selectivity assay for APJ receptor agonist project, dose response (AID 488865); format: functional;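 note: beta-arrestin recruitment to AT1 measured by enzyme fragment complementation luminescence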
T4 sequence (P30556 whole entry): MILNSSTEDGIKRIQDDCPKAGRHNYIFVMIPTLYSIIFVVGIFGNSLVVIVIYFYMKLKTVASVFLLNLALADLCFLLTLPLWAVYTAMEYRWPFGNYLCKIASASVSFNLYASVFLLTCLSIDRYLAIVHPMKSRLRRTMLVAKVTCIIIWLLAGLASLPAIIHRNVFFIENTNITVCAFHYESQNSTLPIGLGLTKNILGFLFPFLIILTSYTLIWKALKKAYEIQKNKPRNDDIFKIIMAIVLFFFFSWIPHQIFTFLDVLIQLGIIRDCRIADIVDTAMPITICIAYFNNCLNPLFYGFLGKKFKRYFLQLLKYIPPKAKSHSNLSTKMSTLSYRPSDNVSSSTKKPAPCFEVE

SUMO-activating enzyme = SUMO-activating enzyme (Homo sapiens, UniProt Q9UBT2); test: blockers of UBC9-mediated SUMO conjugation – biochemical, AlphaScreen, SUMOylation inhibitor project, confirmation (AID 2018); format: functional
INS1 = test: INS-1E survival protection against cytokine death – cell-based, luminescence, retest, dose response (AID 449756); format: functional; settings: Rattus norvegicus;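 note: cell death triggered by IL-1 beta plus TNF-alpha plus IFN-gamma mixture; protective hits raise ATP signal compared with cytokine alone wells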
[10] = viability of PTEN-deleted HCT116 cells – cell-based, HCT116 PTEN knockout, dose response (AID 1047); format: functional;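 note: HCT116 colon tumor cells with PTEN knocked out; cells exposed to compound for 60 hours before readout; potency for loss of cell viability measured by luminescence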
[11] = viability of HCT116 lacking mutant beta-catenin – cell-based, human colon tumor, dose response (AID 1045); format: functional;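 note: HCT116 colon tumor cells with beta catenin knocked out; cells exposed to compound for 60 hours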
[12] = target: Signal transducer and activator of transcription 3 (Homo sapiens, UniProt P40763); test: STAT3 blockade with qPCR and toxicity readouts – cell-based, STAT1 panel, cytotoxicity, late-stage follow-up, panel member STAT3 Inhibition (AID 2078)
[13] = target: Signal transducer and activator of transcription 1-alpha/beta (Homo sapiens, UniProt P42224); test: STAT3 blockade with qPCR and toxicity readouts – cell-based, STAT1 panel, cytotoxicity, late-stage follow-up, panel member STAT1 Inhibition (AID 2078)
[14] = target: T5, Runt-related transcription factor 1/Core-binding factor subunit beta (Homo sapiens, UniProt Q01196+Q13951); test: Runt domain/CBFb-SMMHC interaction disruptors – biochemical, TR-FRET (AID 1438); format: protein assay
[15] = Trypanosoma cruzi growth suppression in host cells – NIH3T3 host cells, beta-gal luminescence, confirmation (AID 2044); format: functional, cell-based;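 note: intracellular parasites grown in NIH/3T3 mouse fibroblasts as host cells; luminescent beta-galactosidase reporter signal from transgenic T. cruzi replicating inside host cells; inhibitors lower the luminescence signal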
[16] = target: T5, Runt-related transcription factor 1/Core-binding factor subunit beta; test: disruptors of Runt domain/CBFb-SMMHC interaction – biochemical, FRET, Cerulean-Runt, Venus-CBFb-SMMHC, uHTS, […] (AID 1434); format: protein assay
[17] = NIH3T3 cell viability loss – ATP luminescence, mouse fibroblasts, counter-screen, dose response (AID 2010); format: functional, cell-based;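 note: cells exposed to compound for about 90 hours before reading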
[18] = target: T6, E3 ubiquitin-protein ligase XIAP (Homo sapiens, UniProt P98170); test: small molecules displacing peptide from XIAP – biochemical, IAP family, fluorescence polarization (AID 1018); format: functional
[19] = target: T6, E3 ubiquitin-protein ligase XIAP; test: Counter Screen using XIAP-Bir3 for Chemical Antagonists of Bir1/2 domains of IAP-family anti-apoptotic proteins. [Related pubchem assays (depositor defined):AID1018, AID1449, AID1514, AID1638, AID1749, AID1750, AID488957, AID488963]

T6 sequence (P98170 whole entry): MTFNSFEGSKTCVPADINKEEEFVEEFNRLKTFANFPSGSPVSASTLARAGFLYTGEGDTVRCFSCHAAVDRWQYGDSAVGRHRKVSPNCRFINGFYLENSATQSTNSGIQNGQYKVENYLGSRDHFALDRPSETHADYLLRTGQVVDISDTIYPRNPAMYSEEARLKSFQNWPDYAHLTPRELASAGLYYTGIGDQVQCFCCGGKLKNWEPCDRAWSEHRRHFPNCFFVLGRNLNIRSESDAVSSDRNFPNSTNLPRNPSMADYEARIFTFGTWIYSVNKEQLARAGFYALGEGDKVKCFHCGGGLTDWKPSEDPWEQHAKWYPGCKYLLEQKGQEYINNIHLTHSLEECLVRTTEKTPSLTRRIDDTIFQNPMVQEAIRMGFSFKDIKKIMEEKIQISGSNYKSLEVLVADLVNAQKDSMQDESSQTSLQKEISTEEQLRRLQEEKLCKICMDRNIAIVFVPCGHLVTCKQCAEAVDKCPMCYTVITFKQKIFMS
T1 sequence (P21554 whole entry): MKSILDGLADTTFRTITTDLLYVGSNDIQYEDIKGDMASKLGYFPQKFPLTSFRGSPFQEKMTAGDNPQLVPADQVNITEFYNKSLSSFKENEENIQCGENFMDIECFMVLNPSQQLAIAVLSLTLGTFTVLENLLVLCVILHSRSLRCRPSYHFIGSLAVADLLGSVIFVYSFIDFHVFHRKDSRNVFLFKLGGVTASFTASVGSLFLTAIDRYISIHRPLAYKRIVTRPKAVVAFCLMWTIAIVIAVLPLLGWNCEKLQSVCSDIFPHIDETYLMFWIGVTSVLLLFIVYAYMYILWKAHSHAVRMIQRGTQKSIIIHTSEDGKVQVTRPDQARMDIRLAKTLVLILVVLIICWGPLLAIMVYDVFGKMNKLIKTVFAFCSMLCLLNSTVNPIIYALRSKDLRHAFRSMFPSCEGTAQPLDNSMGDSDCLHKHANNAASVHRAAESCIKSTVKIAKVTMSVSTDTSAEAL
T2 sequence (Q9HC97 whole entry): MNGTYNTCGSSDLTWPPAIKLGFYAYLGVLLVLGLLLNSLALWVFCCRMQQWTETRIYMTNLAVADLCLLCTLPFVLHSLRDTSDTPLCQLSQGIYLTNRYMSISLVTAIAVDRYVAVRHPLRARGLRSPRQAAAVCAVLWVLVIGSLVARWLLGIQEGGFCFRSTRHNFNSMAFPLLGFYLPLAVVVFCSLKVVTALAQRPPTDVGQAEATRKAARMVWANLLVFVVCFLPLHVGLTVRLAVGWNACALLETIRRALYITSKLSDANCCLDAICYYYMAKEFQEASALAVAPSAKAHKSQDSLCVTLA
T5 sequence (Q01196 whole entry, the tested form may be a part): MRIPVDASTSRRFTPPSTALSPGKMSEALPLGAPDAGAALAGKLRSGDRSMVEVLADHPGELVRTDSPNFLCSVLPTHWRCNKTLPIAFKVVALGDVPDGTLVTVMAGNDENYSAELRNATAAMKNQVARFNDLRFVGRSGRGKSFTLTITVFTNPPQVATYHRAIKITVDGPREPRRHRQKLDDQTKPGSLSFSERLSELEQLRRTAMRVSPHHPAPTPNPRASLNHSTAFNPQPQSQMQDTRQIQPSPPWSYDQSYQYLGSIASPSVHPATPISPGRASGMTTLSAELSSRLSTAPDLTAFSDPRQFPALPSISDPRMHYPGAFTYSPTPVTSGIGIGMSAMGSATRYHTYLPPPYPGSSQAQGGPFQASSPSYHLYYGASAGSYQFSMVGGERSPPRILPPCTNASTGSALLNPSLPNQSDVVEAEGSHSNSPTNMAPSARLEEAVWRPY
T5 sequence (Q13951 whole entry, the tested form may be a part): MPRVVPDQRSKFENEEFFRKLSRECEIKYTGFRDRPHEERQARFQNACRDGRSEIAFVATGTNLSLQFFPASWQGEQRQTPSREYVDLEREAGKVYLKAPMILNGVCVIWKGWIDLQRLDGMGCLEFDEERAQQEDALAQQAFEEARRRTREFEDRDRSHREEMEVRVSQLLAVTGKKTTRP
T3 sequence (P34972 whole entry): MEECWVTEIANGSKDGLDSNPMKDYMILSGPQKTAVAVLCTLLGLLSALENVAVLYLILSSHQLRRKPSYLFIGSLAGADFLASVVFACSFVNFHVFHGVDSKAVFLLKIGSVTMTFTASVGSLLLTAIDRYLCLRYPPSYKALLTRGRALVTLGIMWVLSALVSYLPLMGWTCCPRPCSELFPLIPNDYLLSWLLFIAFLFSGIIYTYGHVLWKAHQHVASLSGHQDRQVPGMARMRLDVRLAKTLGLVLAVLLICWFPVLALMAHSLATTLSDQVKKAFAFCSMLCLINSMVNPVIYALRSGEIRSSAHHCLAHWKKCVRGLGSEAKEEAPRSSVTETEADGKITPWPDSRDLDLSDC
Chain of G-protein coupled receptor 55 (Q9Y2T6 whole entry): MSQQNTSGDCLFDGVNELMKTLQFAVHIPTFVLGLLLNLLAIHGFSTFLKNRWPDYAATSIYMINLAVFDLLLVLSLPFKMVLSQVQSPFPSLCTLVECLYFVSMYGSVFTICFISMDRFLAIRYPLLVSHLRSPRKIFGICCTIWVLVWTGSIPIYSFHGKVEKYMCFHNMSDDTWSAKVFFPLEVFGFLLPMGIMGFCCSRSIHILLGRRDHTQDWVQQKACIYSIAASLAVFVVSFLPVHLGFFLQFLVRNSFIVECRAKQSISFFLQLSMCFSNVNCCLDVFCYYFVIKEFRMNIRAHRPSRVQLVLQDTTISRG
Chain of Signal transducer and activator of transcription 3 (P40763 whole entry): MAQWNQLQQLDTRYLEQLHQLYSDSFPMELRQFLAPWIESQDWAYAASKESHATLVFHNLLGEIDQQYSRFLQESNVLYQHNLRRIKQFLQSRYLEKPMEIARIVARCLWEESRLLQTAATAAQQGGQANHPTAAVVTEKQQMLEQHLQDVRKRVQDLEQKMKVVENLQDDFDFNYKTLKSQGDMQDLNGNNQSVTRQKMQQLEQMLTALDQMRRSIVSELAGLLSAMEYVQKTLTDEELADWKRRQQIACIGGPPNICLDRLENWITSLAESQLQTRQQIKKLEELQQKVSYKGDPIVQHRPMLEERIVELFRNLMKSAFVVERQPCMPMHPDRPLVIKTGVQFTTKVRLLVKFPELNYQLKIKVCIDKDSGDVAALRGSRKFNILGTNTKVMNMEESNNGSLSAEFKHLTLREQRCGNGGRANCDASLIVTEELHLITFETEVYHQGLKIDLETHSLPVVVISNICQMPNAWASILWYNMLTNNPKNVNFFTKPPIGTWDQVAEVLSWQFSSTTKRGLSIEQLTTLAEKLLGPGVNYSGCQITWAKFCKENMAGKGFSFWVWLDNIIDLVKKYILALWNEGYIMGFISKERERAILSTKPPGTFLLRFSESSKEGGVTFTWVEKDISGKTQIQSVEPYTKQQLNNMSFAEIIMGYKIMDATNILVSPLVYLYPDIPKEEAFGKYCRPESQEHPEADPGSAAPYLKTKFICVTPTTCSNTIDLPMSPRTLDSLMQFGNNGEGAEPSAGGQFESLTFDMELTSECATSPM
Chain of Delta-type opioid receptor (P41143 whole entry, the tested form may be a part): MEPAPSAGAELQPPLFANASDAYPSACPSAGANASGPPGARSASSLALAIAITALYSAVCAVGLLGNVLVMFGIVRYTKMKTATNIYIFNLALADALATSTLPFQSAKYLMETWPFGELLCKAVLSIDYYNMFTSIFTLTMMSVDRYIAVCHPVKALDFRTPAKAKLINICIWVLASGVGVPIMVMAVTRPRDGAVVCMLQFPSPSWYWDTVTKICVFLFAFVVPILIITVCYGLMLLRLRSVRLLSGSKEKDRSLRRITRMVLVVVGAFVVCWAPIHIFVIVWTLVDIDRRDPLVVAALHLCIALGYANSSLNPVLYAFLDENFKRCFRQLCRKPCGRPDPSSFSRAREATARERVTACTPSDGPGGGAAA
Chain of SUMO-activating enzyme (Q9UBE0 whole entry): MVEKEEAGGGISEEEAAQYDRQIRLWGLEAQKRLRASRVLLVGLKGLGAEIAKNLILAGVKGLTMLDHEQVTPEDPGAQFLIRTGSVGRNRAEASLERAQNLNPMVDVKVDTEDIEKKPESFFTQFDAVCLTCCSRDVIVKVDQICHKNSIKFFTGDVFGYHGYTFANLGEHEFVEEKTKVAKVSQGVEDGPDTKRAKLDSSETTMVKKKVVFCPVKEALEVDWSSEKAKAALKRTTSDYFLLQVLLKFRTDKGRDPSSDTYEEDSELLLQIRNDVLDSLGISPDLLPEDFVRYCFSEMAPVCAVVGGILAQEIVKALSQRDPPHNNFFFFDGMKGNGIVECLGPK
Chain of SUMO-activating enzyme (Q9UBT2 whole entry): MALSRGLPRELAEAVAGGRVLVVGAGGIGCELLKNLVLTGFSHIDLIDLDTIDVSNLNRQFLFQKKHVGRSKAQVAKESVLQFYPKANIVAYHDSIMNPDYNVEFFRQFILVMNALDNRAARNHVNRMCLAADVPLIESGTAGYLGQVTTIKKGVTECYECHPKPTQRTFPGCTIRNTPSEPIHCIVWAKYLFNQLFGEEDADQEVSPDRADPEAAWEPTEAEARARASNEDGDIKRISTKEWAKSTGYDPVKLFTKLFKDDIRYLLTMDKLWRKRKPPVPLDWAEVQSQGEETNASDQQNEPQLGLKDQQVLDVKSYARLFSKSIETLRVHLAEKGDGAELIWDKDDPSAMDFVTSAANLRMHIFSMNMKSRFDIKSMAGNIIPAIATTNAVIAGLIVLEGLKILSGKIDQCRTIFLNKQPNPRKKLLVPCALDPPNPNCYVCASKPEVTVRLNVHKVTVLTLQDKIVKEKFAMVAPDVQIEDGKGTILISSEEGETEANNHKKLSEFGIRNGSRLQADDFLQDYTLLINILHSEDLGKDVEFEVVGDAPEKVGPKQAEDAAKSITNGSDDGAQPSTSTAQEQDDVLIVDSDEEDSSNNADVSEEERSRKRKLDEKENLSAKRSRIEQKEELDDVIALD

With `N=c1c(C(=O)NCc2cccnc2)cc2c(=O)n3ccccc3nc2n1C1CCCC1` the EC50 (Cannabinoid receptor 1 [1]) was > 32 µM (inactive), the IC50 [2] was > 32 µM (inactive) and the IC50 (Cannabinoid receptor 1 [3]) was > 32 µM (inactive). The IC50 [4] was 5.85 µM (active), the EC50 [5] was > 32 µM (inactive) and the EC50 (Cannabinoid receptor 2 [6]) was 7.94 µM (active). For the same compound, the IC50 (Cannabinoid receptor 2 [7]) was > 32 µM (inactive).
With `Cc1cc(C)c(CSc2nnc(-c3ccccn3)n2Cc2ccco2)c(C)c1` the EC50 (Mu-type opioid receptor) was > 32 µM (inactive) and the EC50 [8] was > 64 µM (inactive).
In the case of `O=c1oc2cc(OCc3ccc([N+](=O)[O-])cc3)ccc2c2c1CCCC2`, the EC50 [9] is reported as > 100 µM (inactive).
For `CCCCCCCC(=O)Nc1ccc(C(=O)N/N=C/c2cccc([N+](=O)[O-])c2)cc1`, the IC50 (SUMO-activating enzyme) was 34.7 µM (active), the AC50 (INS1) was 4.85 µM (active) and the EC50 [10] was 3.02 µM (active). The EC50 [11] was 2.55 µM (active).
For `NNC(=O)c1cc2c(N3CCC(Cc4ccccc4)CC3)ncnc2s1`, the IC50 [12] was 13.7 µM (inactive) and the IC50 [13] was > 55.7 µM (inactive).
With `CCN1CCS/C1=C\C=C\C1=[N+](CC)CCS1` the IC50 [14] was > 100 µM (inactive), the EC50 [15] was < 0.1 µM (active) and the EC50 (cells) was 0.028 µM (active). The IC50 [16] was 1.35 µM (active) and the EC50 [17] was > 60 µM (not active).
For `COc1ccc(-c2nc(Cn3c(SCc4ccccc4F)nc4ccncc43)c(C)o2)cc1`, the IC50 [18] was > 100 µM (not active) and the IC50 [19] was > 100 µM (inactive).
